Test results: ChEMBL document CHEMBL2010662, “Discovery of oxazole-based PDE4 inhibitors with picomolar potency” (Bioorg Med Chem Lett, 2012)

Experiments:
[1] = Inhibition of PDE10
[2] = molecular target: 3',5'-cyclic-AMP phosphodiesterase 4B (Homo sapiens, UniProt Q07343); test: Inhibition of PDE4B
[3] = molecular target: Dual 3',5'-cyclic-AMP and -GMP phosphodiesterase 11A (Homo sapiens, UniProt Q9HCR9); test: Inhibition of PDE11
[4] = molecular target: 3',5'-cyclic-AMP phosphodiesterase 4D (Homo sapiens, UniProt Q08499); test: Inhibition of PDE4D
Cytochrome P450 2C19 = Cytochrome P450 2C19 (Homo sapiens, UniProt P33261); test: Inhibition of CYP2C19; type: ADME
Rattus norvegicus = test: Antiinflammatory activity in po dosed rat assessed as inhibition of LPS-induced pulmonary inflammation; type: functional
Cytochrome P450 2C9 = Cytochrome P450 2C9 (Homo sapiens, UniProt P11712); test: Inhibition of CYP2C9; type: ADME
Cytochrome P450 2D6 = Cytochrome P450 2D6 (Homo sapiens, UniProt P10635); test: Inhibition of CYP2D6; type: ADME
[5] = Inhibition of PDE4-mediated TNF-alpha release by cell based assay
[6] = Cmax in rat at 10 mg/kg, po; type: ADME, organism-based; set-up: dose 10 mg/kg, route oral; settings: in vivo
[7] = Oral bioavailability in rat at 10 mg/kg; type: ADME, organism-based; settings: in vivo
Cytochrome P450 3A4 = Cytochrome P450 3A4 (Homo sapiens, UniProt P08684); test: Inhibition of CYP3A4; type: ADME
Chain of Cytochrome P450 3A4 (P08684 whole entry): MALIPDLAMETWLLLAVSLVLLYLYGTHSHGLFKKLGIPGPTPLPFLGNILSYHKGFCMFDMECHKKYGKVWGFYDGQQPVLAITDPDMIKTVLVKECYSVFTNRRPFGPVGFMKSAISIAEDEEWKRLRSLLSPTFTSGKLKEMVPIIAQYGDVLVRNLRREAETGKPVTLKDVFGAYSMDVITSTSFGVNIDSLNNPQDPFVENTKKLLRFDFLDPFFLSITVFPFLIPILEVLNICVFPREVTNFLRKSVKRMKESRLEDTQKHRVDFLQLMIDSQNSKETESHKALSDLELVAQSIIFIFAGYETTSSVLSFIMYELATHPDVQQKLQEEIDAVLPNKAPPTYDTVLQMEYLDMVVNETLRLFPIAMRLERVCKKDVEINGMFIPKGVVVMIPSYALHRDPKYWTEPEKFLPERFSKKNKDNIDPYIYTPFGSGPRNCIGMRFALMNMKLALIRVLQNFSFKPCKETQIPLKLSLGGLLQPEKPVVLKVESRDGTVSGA

Chain of 3',5'-cyclic-AMP phosphodiesterase 4B (Q07343 whole entry): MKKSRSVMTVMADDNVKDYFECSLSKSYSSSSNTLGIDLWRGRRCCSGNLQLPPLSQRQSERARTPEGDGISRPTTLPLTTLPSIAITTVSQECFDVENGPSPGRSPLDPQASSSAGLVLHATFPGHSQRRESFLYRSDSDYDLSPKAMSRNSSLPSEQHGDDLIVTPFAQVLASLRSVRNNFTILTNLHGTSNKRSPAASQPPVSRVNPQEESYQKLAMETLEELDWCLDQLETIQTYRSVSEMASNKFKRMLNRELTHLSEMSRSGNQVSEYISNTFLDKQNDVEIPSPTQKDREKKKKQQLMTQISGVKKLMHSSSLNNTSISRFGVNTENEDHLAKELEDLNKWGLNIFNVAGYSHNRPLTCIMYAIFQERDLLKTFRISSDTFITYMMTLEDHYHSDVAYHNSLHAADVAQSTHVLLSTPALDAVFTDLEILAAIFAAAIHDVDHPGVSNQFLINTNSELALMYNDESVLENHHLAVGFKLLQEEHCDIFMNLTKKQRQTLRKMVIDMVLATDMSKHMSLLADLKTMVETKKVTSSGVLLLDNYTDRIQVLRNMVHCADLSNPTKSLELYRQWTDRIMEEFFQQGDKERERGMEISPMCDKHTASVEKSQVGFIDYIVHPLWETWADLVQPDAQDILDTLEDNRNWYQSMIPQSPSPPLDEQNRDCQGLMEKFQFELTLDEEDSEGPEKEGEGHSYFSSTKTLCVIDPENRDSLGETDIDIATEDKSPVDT
Chain of Dual 3',5'-cyclic-AMP and -GMP phosphodiesterase 11A (Q9HCR9 whole entry): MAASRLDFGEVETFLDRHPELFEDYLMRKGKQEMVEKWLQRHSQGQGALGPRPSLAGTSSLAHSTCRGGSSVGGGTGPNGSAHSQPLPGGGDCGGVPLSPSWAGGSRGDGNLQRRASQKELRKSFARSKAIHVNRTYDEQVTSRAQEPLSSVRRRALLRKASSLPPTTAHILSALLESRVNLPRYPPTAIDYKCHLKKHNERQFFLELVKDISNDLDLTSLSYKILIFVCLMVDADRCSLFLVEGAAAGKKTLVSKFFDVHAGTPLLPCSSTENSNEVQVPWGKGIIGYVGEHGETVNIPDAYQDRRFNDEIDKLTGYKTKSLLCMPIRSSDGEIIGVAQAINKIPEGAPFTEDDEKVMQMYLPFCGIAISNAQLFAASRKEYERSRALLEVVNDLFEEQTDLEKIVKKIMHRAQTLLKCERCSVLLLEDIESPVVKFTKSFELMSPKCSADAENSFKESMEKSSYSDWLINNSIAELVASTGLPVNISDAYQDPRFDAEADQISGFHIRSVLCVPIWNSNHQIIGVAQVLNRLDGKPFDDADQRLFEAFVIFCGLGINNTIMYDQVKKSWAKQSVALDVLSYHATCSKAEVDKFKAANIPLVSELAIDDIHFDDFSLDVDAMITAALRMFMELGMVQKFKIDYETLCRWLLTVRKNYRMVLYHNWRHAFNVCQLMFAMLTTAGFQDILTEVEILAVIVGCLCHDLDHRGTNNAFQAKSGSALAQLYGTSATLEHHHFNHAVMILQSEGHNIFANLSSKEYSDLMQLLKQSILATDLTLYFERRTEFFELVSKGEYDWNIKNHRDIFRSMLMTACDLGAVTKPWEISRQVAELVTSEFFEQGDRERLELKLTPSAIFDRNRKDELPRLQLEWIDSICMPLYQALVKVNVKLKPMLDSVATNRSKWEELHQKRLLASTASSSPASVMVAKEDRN
Chain of Cytochrome P450 2C9 (P11712 whole entry): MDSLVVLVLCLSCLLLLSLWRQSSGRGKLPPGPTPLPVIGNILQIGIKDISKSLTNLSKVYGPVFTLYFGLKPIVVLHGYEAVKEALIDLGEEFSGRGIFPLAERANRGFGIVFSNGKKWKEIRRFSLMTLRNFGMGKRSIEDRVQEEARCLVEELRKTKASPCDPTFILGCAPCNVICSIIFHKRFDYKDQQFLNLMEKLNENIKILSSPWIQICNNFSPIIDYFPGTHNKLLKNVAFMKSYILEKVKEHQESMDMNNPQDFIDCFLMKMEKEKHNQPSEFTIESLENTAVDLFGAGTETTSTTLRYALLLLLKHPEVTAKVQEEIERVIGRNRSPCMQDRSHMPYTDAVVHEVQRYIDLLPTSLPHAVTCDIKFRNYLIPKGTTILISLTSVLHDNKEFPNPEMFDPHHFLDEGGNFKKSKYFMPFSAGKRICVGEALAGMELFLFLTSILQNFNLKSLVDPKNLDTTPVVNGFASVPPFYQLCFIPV
Chain of Cytochrome P450 2D6 (P10635 whole entry): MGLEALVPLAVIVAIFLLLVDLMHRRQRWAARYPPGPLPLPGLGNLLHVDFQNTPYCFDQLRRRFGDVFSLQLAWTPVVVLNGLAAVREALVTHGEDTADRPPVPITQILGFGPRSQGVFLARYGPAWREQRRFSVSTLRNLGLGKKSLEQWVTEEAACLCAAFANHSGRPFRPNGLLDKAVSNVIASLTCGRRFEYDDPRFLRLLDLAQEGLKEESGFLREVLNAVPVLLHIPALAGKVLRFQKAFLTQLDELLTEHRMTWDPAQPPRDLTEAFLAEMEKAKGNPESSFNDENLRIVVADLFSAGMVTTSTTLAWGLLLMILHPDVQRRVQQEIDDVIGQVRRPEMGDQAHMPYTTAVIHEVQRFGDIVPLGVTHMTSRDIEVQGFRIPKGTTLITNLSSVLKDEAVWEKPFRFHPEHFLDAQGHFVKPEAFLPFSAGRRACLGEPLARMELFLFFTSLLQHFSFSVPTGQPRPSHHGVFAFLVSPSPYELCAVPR
Chain of Cytochrome P450 2C19 (P33261 whole entry): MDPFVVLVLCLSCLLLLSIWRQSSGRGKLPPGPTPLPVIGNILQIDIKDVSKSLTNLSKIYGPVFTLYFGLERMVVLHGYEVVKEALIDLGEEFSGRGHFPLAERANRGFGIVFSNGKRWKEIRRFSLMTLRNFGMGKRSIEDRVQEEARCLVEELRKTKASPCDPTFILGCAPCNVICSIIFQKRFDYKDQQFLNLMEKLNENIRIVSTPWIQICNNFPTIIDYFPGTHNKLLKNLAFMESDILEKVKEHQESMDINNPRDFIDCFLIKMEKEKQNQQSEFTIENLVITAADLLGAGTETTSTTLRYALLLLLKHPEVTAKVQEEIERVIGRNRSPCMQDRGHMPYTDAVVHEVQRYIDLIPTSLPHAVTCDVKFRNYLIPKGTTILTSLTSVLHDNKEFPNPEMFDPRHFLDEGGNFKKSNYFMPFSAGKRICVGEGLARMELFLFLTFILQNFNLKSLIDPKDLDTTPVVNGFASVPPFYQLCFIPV
Chain of 3',5'-cyclic-AMP phosphodiesterase 4D (Q08499 whole entry): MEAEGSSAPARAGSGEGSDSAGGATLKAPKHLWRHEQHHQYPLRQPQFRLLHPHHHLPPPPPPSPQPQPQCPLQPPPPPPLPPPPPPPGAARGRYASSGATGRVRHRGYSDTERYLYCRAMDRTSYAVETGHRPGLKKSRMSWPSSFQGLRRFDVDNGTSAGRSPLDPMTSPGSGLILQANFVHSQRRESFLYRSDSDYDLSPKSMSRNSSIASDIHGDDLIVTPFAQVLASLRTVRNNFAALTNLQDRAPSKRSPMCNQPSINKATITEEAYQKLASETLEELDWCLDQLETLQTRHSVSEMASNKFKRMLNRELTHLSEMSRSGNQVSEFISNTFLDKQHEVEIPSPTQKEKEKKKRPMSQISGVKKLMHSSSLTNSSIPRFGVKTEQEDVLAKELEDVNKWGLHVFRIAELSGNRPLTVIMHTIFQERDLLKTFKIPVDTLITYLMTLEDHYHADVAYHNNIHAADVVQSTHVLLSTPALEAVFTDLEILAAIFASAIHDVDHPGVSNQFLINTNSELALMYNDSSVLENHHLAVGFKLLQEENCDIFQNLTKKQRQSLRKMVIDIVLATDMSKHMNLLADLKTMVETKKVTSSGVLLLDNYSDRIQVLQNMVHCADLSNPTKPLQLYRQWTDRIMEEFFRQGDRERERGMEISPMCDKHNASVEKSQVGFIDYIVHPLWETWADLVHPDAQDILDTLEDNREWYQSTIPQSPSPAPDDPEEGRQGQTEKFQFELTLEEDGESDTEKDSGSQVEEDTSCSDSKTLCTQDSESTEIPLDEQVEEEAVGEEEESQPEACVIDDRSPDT

SMILES	IC50 [1]	IC50 [2]	IC50 [3]	other results
COc1ccc(-c2nc(C(=O)NCc3ccccc3)c(CN)o2)c2ccc(C(F)(F)F)nc12	1200 nM	3.7 nM	4800 nM	–
COc1ccc(-c2nc(C(=O)NCc3ccc(F)cc3)c(CN)o2)c2ccc(C(F)(F)F)nc12	1300 nM	4.1 nM	2700 nM	–
COc1ccc(-c2nc(C(=O)NCc3ccc(Cl)cc3)c(CN)o2)c2ccc(C(F)(F)F)nc12	2100 nM	3.4 nM	2700 nM	–
COc1ccc(-c2nc(C(=O)NCc3ccc(C#N)cc3)c(CN)o2)c2ccc(C(F)(F)F)nc12	–	26 nM	–	–
COc1ccc(-c2nc(C(=O)NCc3ccc(S(C)(=O)=O)cc3)c(CN)o2)c2ccc(C(F)(F)F)nc12	–	37 nM	–	–
COc1ccc(-c2nc(C(=O)NCc3cccc(F)c3)c(CN)o2)c2ccc(C(F)(F)F)nc12	810 nM	1.8 nM	3900 nM	–
COc1ccc(-c2nc(C(=O)NCc3cccc(Cl)c3)c(CN)o2)c2ccc(C(F)(F)F)nc12	770 nM	1.5 nM	2100 nM	–
COc1ccc(-c2nc(C(=O)NCc3ccccc3F)c(CN)o2)c2ccc(C(F)(F)F)nc12	500 nM	0.9 nM	3600 nM	–
COc1ccc(-c2nc(C(=O)NCc3ccccc3Cl)c(CN)o2)c2ccc(C(F)(F)F)nc12	610 nM	1.2 nM	2300 nM	–
COc1ccccc1CNC(=O)c1nc(-c2ccc(OC)c3nc(C(F)(F)F)ccc23)oc1CN	320 nM	0.5 nM	870 nM	–
COc1ccc(-c2nc(C(=O)NCc3c(F)cccc3F)c(CN)o2)c2ccc(C(F)(F)F)nc12	240 nM	0.46 nM	2500 nM	–
COc1ccc(-c2nc(C(=O)NCc3c(F)cccc3Cl)c(CN)o2)c2ccc(C(F)(F)F)nc12	410 nM	0.1 nM	1300 nM	–
COc1ccc(-c2nc(C(=O)NCc3ccc(F)cc3F)c(CN)o2)c2ccc(C(F)(F)F)nc12	1000 nM	0.6 nM	2200 nM	IC50 [4]: 0.7 nM
COc1ccc(-c2nc(C(=O)NCc3ccc(Cl)cc3F)c(CN)o2)c2ccc(C(F)(F)F)nc12	2200 nM	2.7 nM	2700 nM	–
COc1ccc(-c2nc(C(=O)NCc3ccc(Cl)cc3Cl)c(CN)o2)c2ccc(C(F)(F)F)nc12	1300 nM	4.3 nM	1100 nM	–
COc1ccc(-c2nc(C(=O)NCc3ccc(F)c(F)c3)c(CN)o2)c2ccc(C(F)(F)F)nc12	1300 nM	2.6 nM	2200 nM	–

SMILES	IC50 [1]	IC50 [2]	IC50 [3]	other results
COc1ccc(-c2nc(C(=O)NCc3ccc(Cl)cc3)c([C@H](C)N)o2)c2ccc(C(F)(F)F)nc12	650 nM	0.35 nM	1100 nM	–
COc1ccc(-c2nc(C(=O)NCc3cccc(F)c3)c([C@H](C)N)o2)c2ccc(C(F)(F)F)nc12	160 nM	0.3 nM	1400 nM	–
COc1ccc(-c2nc(C(=O)NCc3ccccc3F)c([C@H](C)N)o2)c2ccc(C(F)(F)F)nc12	80 nM	0.3 nM	1100 nM	–
COc1ccc(-c2nc(C(=O)NCc3c(F)cccc3F)c([C@H](C)N)o2)c2ccc(C(F)(F)F)nc12	125 nM	0.05 nM	1400 nM	–
COc1ccc(-c2nc(C(=O)NCc3c(F)cccc3Cl)c([C@H](C)N)o2)c2ccc(C(F)(F)F)nc12	120 nM	0.03 nM	1600 nM	–
COc1ccc(-c2nc(C(=O)NCc3ccc(F)cc3F)c([C@H](C)N)o2)c2ccc(C(F)(F)F)nc12	950 nM	0.06 nM	2300 nM	IC50 (Cytochrome P450 2C19): > 8000 nM; ED50 (Rattus norvegicus): 0.1 mg/kg; IC50 (Cytochrome P450 2C9): > 8000 nM; IC50 (Cytochrome P450 2D6): > 8000 nM; IC50 [5]: 0.6 nM; Cmax [6]: 960 nM; bioavailability [7]: 24%; IC50 (Cytochrome P450 3A4): > 8000 nM
COc1ccc(-c2nc(C(=O)NCc3ccc(Cl)cc3F)c([C@H](C)N)o2)c2ccc(C(F)(F)F)nc12	700 nM	0.7 nM	1100 nM	–
COc1ccc(-c2nc(C(=O)NCc3ccc(Cl)cc3Cl)c([C@H](C)N)o2)c2ccc(C(F)(F)F)nc12	1700 nM	0.7 nM	1800 nM	–
COc1ccc(-c2nc(C(=O)NCc3ccc(F)c(F)c3)c([C@H](C)N)o2)c2ccc(C(F)(F)F)nc12	1400 nM	0.6 nM	2000 nM	–
COc1ccc(-c2nc(C(=O)NCc3c(F)cc(F)cc3F)c([C@H](C)N)o2)c2ccc(C(F)(F)F)nc12	500 nM	0.04 nM	3400 nM	–
CC[C@H](N)c1oc(-c2ccc(OC)c3nc(C(F)(F)F)ccc23)nc1C(=O)NCc1ccc(Cl)cc1	–	0.81 nM	–	–
COc1ccc(-c2nc(C(=O)NCc3ccc(Cl)cc3)c([C@@H](N)CO)o2)c2ccc(C(F)(F)F)nc12	–	12.7 nM	–	–
COc1ccc(-c2nc(C(=O)NCc3ccc(F)cc3F)c([C@@H](N)C(C)C)o2)c2ccc(C(F)(F)F)nc12	–	0.36 nM	–	–
COc1ccc(-c2nc(C(=O)N[C@H](CO)c3ccccc3)c(CN)o2)c2ccc(C(F)(F)F)nc12	–	1.6 nM	–	–
COc1ccc(-c2nc(C(=O)N[C@H](CO)c3ccccc3)c([C@H](C)N)o2)c2ccc(C(F)(F)F)nc12	–	0.11 nM	–	–
COc1ccc(-c2nc(C(=O)N[C@H](CO)c3ccccc3)c([C@@H](C)N)o2)c2ccc(C(F)(F)F)nc12	–	8.4 nM	–	–
